Reference: patent publication US20030212123A1, “COX-2 selective carprofen for treating pain and inflammation in dogs” (Pfizer Inc., priority 1997, published 2003)
Like-named read-outs stand apart in the source and are kept apart here.

Legend:
Assay type in all cases: cell-based, dog
canine COX-1 = biological target: T1, canine COX-1 (Canis lupus familiaris, UniProt Q8HZR1); assay: Canine COX-1 activity: washed canine platelets, A23187-stimulated TXB2 by EIA; settings: results of repeated tests averaged
T1 construct: from tissue; host or cells: washed platelets from donor dog blood
T1 sequence (Q8HZR1 28-603): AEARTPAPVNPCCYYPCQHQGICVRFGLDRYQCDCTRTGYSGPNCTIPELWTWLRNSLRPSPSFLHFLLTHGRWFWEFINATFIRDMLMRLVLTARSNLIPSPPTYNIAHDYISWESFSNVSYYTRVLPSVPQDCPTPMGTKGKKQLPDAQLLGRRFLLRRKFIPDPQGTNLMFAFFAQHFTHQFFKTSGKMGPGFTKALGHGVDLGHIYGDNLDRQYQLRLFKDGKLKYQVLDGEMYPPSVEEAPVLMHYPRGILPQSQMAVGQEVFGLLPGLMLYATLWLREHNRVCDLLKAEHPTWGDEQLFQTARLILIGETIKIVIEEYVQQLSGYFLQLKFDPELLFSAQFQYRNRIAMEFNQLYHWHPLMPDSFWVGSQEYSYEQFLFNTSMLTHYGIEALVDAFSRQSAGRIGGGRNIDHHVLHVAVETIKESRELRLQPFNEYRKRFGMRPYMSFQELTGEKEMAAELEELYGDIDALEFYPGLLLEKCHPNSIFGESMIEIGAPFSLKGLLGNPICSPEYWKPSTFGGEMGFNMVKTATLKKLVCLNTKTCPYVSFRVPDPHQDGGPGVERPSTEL
Procedure: Protocol for Evaluation of Canine COX-1 Activity
Test drug compounds were solubilized and diluted the day before the assay was to be conducted with 0.1 mL of DMSO/9.9 mL of Hank's balanced salts solution (HBSS), and stored overnight at 4° C. On the day that the assay was carried out, citrated blood was drawn from a donor dog, centrifuged at 190×g for 25 min at room temperature, and the resulting platelet-rich plasma was then transferred to a new tube for further procedures. The platelets were washed by centrifuging at 1500×g for 10 min at room temperature. The platelets were washed with platelet buffer comprising Hank's buffer (Ca free) with 0.2% bovine serum albumin (BSA) and 20 mM HEPES. […] Then, 100 μl of canine washed platelets were added and the samples were incubated at 37° C. for 15 min, after which the reaction was stopped by adding 20 μl of 77 mM EDTA. The plates were then centrifuged at 2000×g for 10 min at […], after which 50 μl of supernatant was assayed for thromboxane B2 (TXB2) by enzyme-immunoassay (EIA).

canine COX-2 [1] = biological target: T2, canine COX-2 (Canis lupus familiaris, UniProt Q8SPQ9); assay: Canine COX-2 activity: LPS-treated DH82 canine histocytoma cells, PGE2 by EIA
T2 construct: host or cells: DH82 canine histocytoma cells, LPS-treated overnight
T2 sequence (Q8SPQ9 18-604): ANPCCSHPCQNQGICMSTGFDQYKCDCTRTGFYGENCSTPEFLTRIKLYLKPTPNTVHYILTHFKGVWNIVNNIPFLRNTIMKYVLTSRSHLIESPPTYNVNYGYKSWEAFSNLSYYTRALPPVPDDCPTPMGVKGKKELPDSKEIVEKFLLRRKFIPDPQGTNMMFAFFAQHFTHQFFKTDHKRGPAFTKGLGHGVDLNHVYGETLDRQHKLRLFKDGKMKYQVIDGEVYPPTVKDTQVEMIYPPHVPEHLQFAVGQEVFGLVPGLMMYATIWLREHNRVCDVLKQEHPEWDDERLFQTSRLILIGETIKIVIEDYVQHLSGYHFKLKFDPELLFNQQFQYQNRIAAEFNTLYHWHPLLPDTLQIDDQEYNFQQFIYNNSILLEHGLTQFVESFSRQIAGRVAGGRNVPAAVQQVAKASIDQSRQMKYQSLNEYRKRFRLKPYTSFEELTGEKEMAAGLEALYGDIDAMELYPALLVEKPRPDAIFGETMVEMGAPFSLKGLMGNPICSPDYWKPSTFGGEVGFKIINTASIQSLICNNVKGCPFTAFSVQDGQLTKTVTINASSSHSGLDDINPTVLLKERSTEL
Procedure: (§1) Protocol for Evaluation of Canine COX-2 Activity
(§2) A canine histocytoma (macrophage-like) cell line from the American Type Culture Collection designated as DH82, was used in setting up the protocol for evaluating the COX-2 inhibition activity of various test drug compounds. There was added to flasks of these cells 10 μg/mL of LPS, after which the flask cultures were incubated overnight. The same test drug compound dilutions as described above for the COX-1 protocol were used for the COX-2 assay and were prepared the day before the assay was carried out. […] The test sample suspensions were incubated for 1 hr and then centrifuged at 1000 rpm for 10 min at 4° C., after which 50 μl aliquots of each test drug sample were delivered to EIA plates. The EIA was performed for prostaglandin E2 (PGE2), and the pg/mL concentration of PGE2 was calculated from the standard line included on each plate. […] The results were averaged, and a single COX-1:COX-2 ratio was calculated.

canine COX-2 [2] = assay: as above
Procedure: as §1, §2

[3] = DH82 cells, PGE2, results of repeated tests averaged, read-out: COX-2 IC50
[4] = ratio of canine COX-1 IC50 to COX-2 IC50, higher = more COX-2 selective

Row | IC50 (canine COX-1) [nM] | IC50 (canine COX-2 [1]; [3]) [nM] | IC50 (canine COX-2 [1]) [nM] | Structure (SMILES) | COX-1/COX-2 Ratio (canine COX-2 [2]; [4]) | COX-1/COX-2 Ratio (canine COX-2 [2])
1 | 587 | – | – | CS(=O)(=O)Nc1ccc([N+](=O)[O-])cc1OC1CCCCC1 [NS-398, N-[2-(cyclohexyloxy)-4-nitrophenyl]-methanesulfonamide] | – | –
2 | 469 | – | – | NC(=O)N1C(=O)C(C(=O)c2cccs2)c2cc(Cl)ccc21 (stereo not shown) [Tenidap, 5-chloro-2,3-dihydro-3-(hydroxy-2-thienylmethylene)-2-oxo-1H-indole-1-carboxamide] | – | –
3 | 2540 | 362 | – | O=C(O)Cc1ccc(-c2ccccc2)cc1 [Felbinac, [1,1′-biphenyl]-4-acetic acid] | 7.01 | –
4 | 6710 | – | 37.1 | C[C@H](C(=O)O)c1ccc2c(c1)[nH]c1ccc(Cl)cc12 [Carprofen (S-), (S)-6-chloro-α-methyl-carbazole-2-acetic acid] | – | –
5 | 7.68 | 12.1 | – | Cc1c(Nc2ncccc2C(=O)O)cccc1C(F)(F)F [Flunixin, 2-{[2-methyl-3-(trifluoromethyl)-phenyl]amino}-3-pyridinecarboxylic acid; compounded with 1-deoxy-1-(methylamino)-D-glucitol(1:1)] | 0.635 | –
6 | 891 | – | – | Cc1cnc(NC(=O)C2=C(O)c3ccccc3S(=O)(=O)N2C)s1 [Meloxicam, 4-hydroxy-2-methyl-N-(5-methyl-2-thiazolyl)-2H-1,2-benzothiazine-3-carboxamide] | – | –
7 | – | 3790 | – | CCCCC1C(=O)N(c2ccccc2)N(c2ccccc2)C1=O [Phenylbutazone, 4-butyl-1,2-diphenyl-3,5pyrazolidinedione] | – | –
8 | – | – | 626 | COc1ccc2cc(C(C)C(=O)O)ccc2c1 (stereo not drawn) [Naproxen, 6-methoxy-α-methyl-2-naphthaleneacetic acid] | – | –
9 | 505 | – | – | CC(C(=O)O)c1ccc(-c2ccccc2)c(F)c1 (stereo not drawn) [Flurbiprofen, 2-fluoro-α-methyl-[1,1′-biphenyl]-4-acetic acid] | – | –
10 | 223 | – | – | CN1C(C(=O)Nc2ccccn2)=C(O)c2ccccc2S1(=O)=O [Piroxicam, 4-hydroxyy-2-methyl-N-2-pyridinyl-2H-1,2-benzothiazine-3-carboxamide-1,1-dioxide] | – | –
11 | 472 | 270 | – | NC(=O)N1C(=O)C(C(=O)c2cccs2)c2cc(F)c(Cl)cc21 (stereo not shown) [Ilonidap, 6-chloro-5-fluoro-2,3-dihydro-(hydroxy-2-thienylmethylene)-2-oxo-1H-indole-1-carboxamide] | 1.75 | –
12 | 13200 | 7410 | – | C=CCOc1ccc(CC(=O)O)cc1Cl [Alclofenac, 3-chloro-4-(2-propenyloxy)-benzene acetic acid] | 1.78 | –
13 | 2310 | 47.5 | – | O=C(O)c1ccccc1Nc1cccc(C(F)(F)F)c1 [Flufenamic acid, 2-{[3-(trifluoromethyl)phenyl]amino}-benzoic acid] | 48.6 | –
14 | 1030 | 46.4 | – | O=C(O)c1cccnc1Nc1cccc(C(F)(F)F)c1 [Niflumic acid, 2-[3-(trifluoromethyl)anilino]nicotinic acid] | 22.2 | –
15 | > 25000 | – | 5970 | C[C@@H](C(=O)O)c1ccc2c(c1)[nH]c1ccc(Cl)cc12 [Carprofen (R-)] | – | –
16 | 206 | 13.7 | – | Cc1c(Cl)cccc1Nc1ccccc1C(=O)O [Tolfenamic acid, N-(3-chloro-o-tolyl)-anthranilic acid] | 15.0 | –
17 | 1330 | – | 2570 | CCc1cccc2c3c([nH]c12)C(CC)(CC(=O)O)OCC3 (stereo not shown) [Etodolac, 1,8-diethyl-1,3,4,9-tetrahydro-pyrano[3,4-b]indole-1-acetic acid] | – | 0.517
18 | 737 | 47.8 | – | Cc1ccc(Cl)c(Nc2ccccc2C(=O)O)c1Cl [Meclofenamic acid, 2-[(2,6-dichloro-3-methylphenyl)amino]-benzoic acid] | 15.4 | –
19 | – | – | 56.5 | CS(=O)(=O)Nc1ccc([N+](=O)[O-])cc1Oc1ccccc1 [Nimesulide, 4′-nitro-2′-phenoxymethanesulfonanilide] | – | –

Row | Structure (SMILES) | IC50 (canine COX-1) [nM] | IC50 (canine COX-2 [1]; [3]) [nM] | IC50 (canine COX-2 [1]) [nM] | COX-1/COX-2 Ratio (canine COX-2 [2]; [4]) | COX-1/COX-2 Ratio (canine COX-2 [2])
20 | Cc1cccc(Nc2ccccc2C(=O)O)c1C [Mefenamic acid, 2-[(2,3-dimethylphenyl)amino]-benzoic acid] | 403 | – | 36.2 | 11.1 | –
21 | CC(C(=O)O)c1cccc(C(=O)c2ccccc2)c1 (stereo not drawn) [Ketoprofen, 3-benzoyl-α-methyl-benzeneacetic acid] | – | – | 123 | – | –
22 | COc1ccc2cc(CC(=O)O)ccc2c1 [6-MNA, 6-methoxy-2-naphthyl-acetic acid] | 28300 | 4210 | – | 6.72 | –
23 | CC(=O)Oc1ccccc1C(=O)O [Aspirin, 2-(acetyloxy)-benzoic acid] | 34300 | – | > 100000 | <0.343 | –
